“Also recorded” adds a separate entry of the source.
Tests used:
[1] = cited from earlier work; for typical maximum tolerated dose: body surface
[2] = system: RPMI2650 xenograft (Nasal Septum Carcinoma cells, ATCC# CCL-30); experiment: RPMI2650 head and neck carcinoma xenograft, tumor growth; format: in vivo, Mus musculus (Hsd: Athymic Nude-Foxn1nu); conditions: for TGI (tumor growth inhibition): day 30, after 3 weeks of dosing; for TGI (tumor growth inhibition) / GMDV (geo mean of final tumor volume/geo mean of initial tumor volume): ACE-041 10 mg/kg i.p. tiw, cisplatin 5 mg/kg i.v. qw; for GMDV (geo mean of final tumor volume/geo mean of initial tumor volume): day 30
Method: Tumor implantation. RPMI2650 (ATCC #CCL-30) were grown in Eagle's Minimum Essential Medium (ATCC Cat. No 30-2003), supplemented with fetal bovine serum (Gibco, Cat. No 26140) to a final concentration of 10%. Cell were harvested by mild trypsin digestion, washed in SFM and resuspended at a concentration of 50×10E6/ml in SFM. 0.1 ml (5×10E6 cells) of the cell suspension was injected subcutaneously in the right flank of a nude mouse.
Tumor measurement. Tumor size was measured manually using digital calipers. Tumor volume was calculated using the formula for a modified ellipse ((Length*Width2)/2).
Data Analysis. […] TGI was calculated according to the formula:
TGI=(GMDV(C)−GMDV(T))*100/(GMDV(C)−1), where GMDV=Geomean(final volumes)/Geomean(intitial volumes)

[3] = system: recurrent or metastatic squamous cell carcinoma of the head and neck (SCCHN); experiment: Phase 2 study of Dalantercept in recurrent or metastatic SCCHN; format: in vivo, human
Method: Methods: 46 patients were enrolled and received Dalantercept SC Q3W at 80 mg (n=2), 0.6 mg/kg (n=13), and 1.2 mg/kg (n=31) until disease progression or unacceptable toxicity. Archived and optional biopsies and serum were collected for PD (pharmacodynamic) studies . The primary endpoint was response rate (RR) per RECIST 1.1 and secondary endpoints included progression free survival and overall survival. Key eligibility: recurrent or metastatic SCCHN of mucosal origin, >1 one prior platinum regimen, ECOG performance status ≦1, and no prior anti-angiogenic therapy.

[4] = system: advanced, refractory solid tumors including SCCHN; experiment: Phase 1 study of dalantercept in patients with advanced, refractory solid tumors; format: in vivo, human; conditions: patients incl. SCCHN
[5] = Animal body weight / tolerability in the RPMI2650 xenograft study; conditions: for Average changes in body weight: ACE-041 10 mg/kg i.p. tiw
Method: Nasal Septum Carcinoma cells (RPMI2650, ATCC# CCL-30) were injected subcutaneously in the right flank (5×10E6 in 0.1 ml of SFM) of 8-week old female mice. Nine days following implantation animals were randomized into 4 groups based on tumor volume. Animal dosing and tumor measurement was done three times a week.
Data Analysis. Graphing and statistical analysis of the tumor volume and body weight data was done using GraphPad Prism 5 software (GraphPad Software Inc., La Jolla, Calif.). Unpaired two-tailed t-test (with or w/o Welch correction) was used to determine statistical significance.

[6] = Day 9 (randomization, start of dosing), s.c. RPMI2650 xenograft, nude mice
[7] = Day 30, ACE-041 10 mg/kg i.p. tiw x3, cisplatin 5 mg/kg i.v. qw x3
[8] = day 30, cisplatin 5 mg/kg i.v. qw

Compound	typical maximum tolerated dose [1]	Tumor volume (geo mean) [2, 6] [mm3]	Tumor volume (geo mean) [2, 7] [mm3]	TGI (tumor growth inhibition) [2] [%]	GMDV (geo mean of final tumor volume/geo mean of initial tumor volume) [2]	proportion of patients with stable disease (SD) >3 cycles ([3]; 0.6 mg/kg SC Q3W (n=3)) [%]	proportion of patients with stable disease (SD) >3 cycles ([3]; 1.2 mg/kg SC Q3W (n=10)) [%]	patients achieving a partial response (PR), RECIST 1.1 ([3]; 1 patient at 1.2 mg/kg SC Q3W, 41 evaluable patients) [%]	frequency of grade >3 related AEs ([3]; 46 patients enrolled, SC Q3W) [%]	most common drug-related adverse events (in words) ([3]; grade 1-2)	clinical activity (in words) ([4]; listed as Dalantercept)	clinical activity (in words) ([4]; listed as dalantercept)	Average changes in body weight [5, 8] [%]	toxicity as monitored by changes in animal body weight (in words) ([5]; dosing period to day 30)	maximum tolerated dose ([1]; typical, most patients)	cumulative body weight loss on average [5, 8] [%]	body weight loss of some animals (as much as) ([5]; individual animals, triggered termination of the study) [%]
N.N.N.N.N.N.NCCCCCCN.NCCCCCCN.[Cl-].[Cl-].[Pt+2].[Pt+2].[Pt+2] [Triplatin]	0.9-1.1 mg/m^2																
ACE-041: Soluble ALK1-IgG1 fusion protein (ALK1 extracellular domain-Fc), see SEQ ID NO: 3; ligand trap to BMP 9 and 10		181.4	1024	32	5.6	23	37	2.4	13	anemia, fatigue, peripheral edema, headache, hyponatremia, and pleural effusion	demonstrated activity in a subset of patients with SCCHN	signs of clinical activity; also recorded: stable disease	9.1	did not show any sign of acute toxicity			
N.N.O=C([O-])C1(C(=O)[O-])CCC1.[Pt+2] [Carboplatin]	600-800 mg/m^2																
N.N.[Cl][Pt][Cl] [Cisplatin, cisplatin]	60-100 mg/m^2	185.8	1001	35	5.4								−12.9		about 5 mg/kg/day	~13	≤ 20

From US20170152490A9, “USE OF ACTIVIN RECEPTOR-LIKE KINASE 1 (ALK-1) ANTAGONISTS IN THE TREATMENT OF CANCER” (Acceleron Pharma, Inc., priority 2014, published 2017)
